Assay results taken from patent publication US12544388B2, “Compound for treating and/or preventing diseases caused by coronavirus and use thereof” (SHANGHAITECH UNIVERSITY, priority 2020, dated 2026).
pIC50: −log10 of the molar value.

Key:
[1] = Phase I, patients with advanced solid tumors; cited from earlier work
[2] = biological target: SARS-CoV-2 papain-like protease (Severe acute respiratory syndrome coronavirus 2, UniProt P0DTD1); assay type: biochemical; conditions: for inhibition of papain-like protease activity versus negative control: 50 μM inhibitor, 0.2 μM enzyme (FIG. 4, FIG. 5)
in vitro = conditions: African green monkey

Question: For Br.COCCn1c2c([n+](Cc3cnccn3)c1C)C(=O)c1ccccc1C2=O [YM155, Sepantronium Bromide], which “MTD (maximum tolerated dose)” value [1] is on record?
Answer: 8.0 mg/m^2/d

Question: And the pIC50 ([2]; 200 nM enzyme, 20 μM substrate, 10 min room temperature, read-out: IC50, inhibitory activity on novel coronavirus papain-like protease)?
Answer: 5.61

Question: And the CC50 (in vitro)?
Answer: > 133 µM

Question: What does the source list for C[C@H]1COC2=C1C(=O)C(=O)c1c2ccc2c1CCCC2(C)C [cryptotanshinone, Cryptotanshinone]?
Answer: inhibition of papain-like protease activity versus negative control [2]: significantly inhibit; CC50 (in vitro): > 300 µM

Question: Which results are given for Cc1coc2c1C(=O)C(=O)c1c-2ccc2c(C)cccc12 [tanshinone I, Tanshinone I]?
Answer: inhibition of papain-like protease activity versus negative control [2]: significantly inhibit; CC50 (in vitro): > 300 µM
